Experiment [1] deals with T1, 5-HT2B receptor (Homo sapiens, UniProt P41595).
T1 construct: host or cells: CHO-K1
As to the kind of experiment: 5-HT2B receptor binding, ligand displacement assay with 3H-LSD radioligand. To be noted: human receptor in CHO-K1; for inhibition at 0.001 µM: 1 nM compound; for inhibition at 0.01 µM: 10 nM compound; for inhibition at 0.1 µM: 100 nM compound. Here is the method:
(§1) 5-HT2B receptor binding (performed at Eurofins Panlabs Taiwan, Ltd.) to human receptor protein expressed in CHO-K1 cells was determined in a ligand displacement assay using ^3H-lysergic acid diethylamide (LSD) as radioligand and ketanserine as a standard reference compound, or alternatively*, with ^3H-mesulergine and SB 206553 as reference. Data is presented as % displacement of radioligand at indicated compound concentrations, see Table 1.

In experiment [2] the target is T1, 5-HT2B receptor. Description: 5-HT2B receptor binding, ligand displacement assay, alternative (*) with 3H-mesulergine. To be noted: * 3H-mesulergine radioligand, SB 206553 reference; for 5-HT2B receptor binding (% displacement) 1 nM: 1 nM compound; for inhibition at 0.01 µM: 10 nM compound; for 5-HT2B receptor binding (% displacement) 100 nM: 100 nM compound. The method, then:
as §1

Where a name gives a salt, the structure may show the parent alone. Marks after values point to notes of the source that are not given here.

The inhibition is the change of the read-out against control, counted positive when it falls.

T1 sequence (P41595 whole entry): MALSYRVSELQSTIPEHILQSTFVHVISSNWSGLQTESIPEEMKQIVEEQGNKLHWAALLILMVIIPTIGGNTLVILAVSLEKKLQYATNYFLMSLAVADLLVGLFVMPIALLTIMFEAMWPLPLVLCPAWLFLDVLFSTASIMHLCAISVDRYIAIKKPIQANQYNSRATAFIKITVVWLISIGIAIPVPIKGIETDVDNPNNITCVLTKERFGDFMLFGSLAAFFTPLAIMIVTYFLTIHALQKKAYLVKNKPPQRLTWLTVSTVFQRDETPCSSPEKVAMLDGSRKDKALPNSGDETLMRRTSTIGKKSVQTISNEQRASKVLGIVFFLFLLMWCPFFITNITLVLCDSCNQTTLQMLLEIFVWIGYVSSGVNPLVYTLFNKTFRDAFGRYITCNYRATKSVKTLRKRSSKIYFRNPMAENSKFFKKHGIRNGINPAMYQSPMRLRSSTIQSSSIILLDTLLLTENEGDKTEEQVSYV

For `CC1CN(C(=N)NCc2ccccc2)c2ccc3ccccc3c21` (centres unmarked) [Example 8, N-Benzyl-1-methyl-1,2-dihydro-3H-benzo[e]indole-3-carboximidamide hydrochloride], on 5-HT2B receptor [1], the inhibition at 0.001 µM turned out to be 30%, the inhibition at 0.01 µM is 80% and the inhibition at 0.1 µM is 99%.
For `CC1CN(C(=N)N)c2ccc3c(C(F)(F)F)cccc3c21` (centres unmarked) [Example 35, 1-Methyl-6-(trifluoromethyl)-1,2-dihydro-3H-benzo[e]indole-3-carboximidamide 2,2,2-trifluoroacetic acid salt], at 5-HT2B receptor [1], the inhibition at 0.001 µM is 11%, the inhibition at 0.01 µM is 61% and the inhibition at 0.1 µM was 92%. In addition, on 5-HT2B receptor [2], the “5-HT2B receptor binding (% displacement) 1 nM” value came out at 21%, the inhibition at 0.01 µM was 52% and the “5-HT2B receptor binding (% displacement) 100 nM” value is reported as 91%.
In the case of `CC1CN(C(=N)N)c2cc(F)c3c(Cl)cccc3c21` (centres unmarked) [Example 45, 6-Chloro-5-fluoro-1-methyl-1,2-dihydro-3H-benzo[e]indole-3-carboximidamide hydrochloride], on 5-HT2B receptor [1], the inhibition at 0.001 µM came out at 77%, the inhibition at 0.01 µM was determined as 100% and the inhibition at 0.1 µM amounted to 98%.
In the same order, the values of `CC1CN(C(=N)N)c2cnc3ccccc3c21` (centres unmarked) [Example 5, 1-Methyl-1,2-dihydro-3H-pyrrolo[2,3-c]quinoline-3-carboximidamide hydrochloride] are 11%, 28% and 71%.
With `CSc1cccc2c3c(ccc12)N(C(=N)N)CC3C` (centres unmarked) [Example 37, 1-Methyl-6-(methylthio)-1,2-dihydro-3H-benzo[e]indole-3-carboximidamide 2,2,2-trifluoroacetic acid salt], at 5-HT2B receptor [2], the “5-HT2B receptor binding (% displacement) 1 nM” value was 5* %, the inhibition at 0.01 µM was determined as 53% and the “5-HT2B receptor binding (% displacement) 100 nM” value was 94* %.
In the case of `CC1CN(C(=N)NCc2ccc(Cl)cc2)c2ccc3ccccc3c21` (centres unmarked) [Example 9, N-(4-Chlorobenzyl)-1-methyl-1,2-dihydro-3H-benzo[e]indole-3-carboximidamide hydrochloride], at 5-HT2B receptor [1], the inhibition at 0.001 µM was 26%, the inhibition at 0.01 µM is 55% and the inhibition at 0.1 µM came out at 95%.
In the same order, the values of `CCCc1cccc2c3c(ccc12)N(C(=N)N)CC3C` (centres unmarked) [Example 43, 1-Methyl-6-propyl-1,2-dihydro-3H-benzo[e]indole-3-carboximidamide hydrochloride] are 21%, 70% and 96%.
In the same order, the values of `CC1CN(C(=N)NCc2ccc(F)c(F)c2)c2ccc3ccccc3c21` (centres unmarked) [Example 10, N-(3,4-Difluorobenzyl)-1-methyl-1,2-dihydro-3H-benzo[e]indole-3-carboximidamide hydrochloride] are 7%, 50% and 91%.
As for `CC1CN(C(=N)N)c2ccc3c([S+](C)[O-])cccc3c21` (centres unmarked) [Example 38, 1-Methyl-6-(methylsulfinyl)-1,2-dihydro-3H-benzo[e]indole-3-carboximidamide 2,2,2-trifluoroacetic acid salt], on 5-HT2B receptor [2], the “5-HT2B receptor binding (% displacement) 1 nM” value is 4* %, the inhibition at 0.01 µM was found to be 7% and the “5-HT2B receptor binding (% displacement) 100 nM” value is on record as 20* %.
For `COc1cccc2c3c(ccc12)N(C(=N)N)CC3C` (centres unmarked) [Example 36, 6-Methoxy-1-methyl-1,2-dihydro-3H-benzo[e]indole-3-carboximidamide 2,2,2-trifluoroacetic acid salt], in that order: 10* %, 48% and 90* %.
For the compound `CCCCNC(=N)N1CC(C)c2c1ccc1ccccc21` (centres unmarked) [Example 7, N-Butyl-1-methyl-1,2-dihydro-3H-benzo[e]indole-3-carboximidamide hydrochloride], on 5-HT2B receptor [1], the inhibition at 0.001 µM came to 32%, the inhibition at 0.01 µM was 77% and the inhibition at 0.1 µM worked out at 96%.
For the compound `CC1CN(C(=N)Nc2ccc(F)cc2)c2ccc3c(Br)cccc3c21` (centres unmarked) [Example 30, 6-Bromo-N-(4-fluorophenyl)-1-methyl-1,2-dihydro-3H-benzo[e]indole-3-carboximidamide 2,2,2-trifluoroacetic acid salt], the inhibition at 0.01 µM at 5-HT2B receptor [1] was 105%.
As for `CC1CN(C(=N)N)c2ccc3c(-c4ccccc4)cccc3c21` (centres unmarked) [Example 41, 1-Methyl-6-phenyl-1,2-dihydro-3H-benzo[e]indole-3-carboximidamide hydrochloride], at 5-HT2B receptor [1], the inhibition at 0.001 µM was found to be 0%, the inhibition at 0.01 µM came out at 7% and the inhibition at 0.1 µM came out at 40%.
With `CC1CN(C(=N)NCC(F)(F)F)c2ccc3c(Br)cccc3c21` (centres unmarked) [Example 22, 6-Bromo-1-methyl-N-(2,2,2-trifluoroethyl)-1,2-dihydro-3H-benzo[e]indole-3-carboximidamide 2,2,2-trifluoroacetic acid salt], the inhibition at 0.01 µM at 5-HT2B receptor [1] was determined as 95%.
Regarding `C#Cc1cccc2c3c(ccc12)N(C(=N)N)CC3C` (centres unmarked) [Example 40, 6-Ethynyl-1-methyl-1,2-dihydro-3H-benzo[e]indole-3-carboximidamide 2,2,2-trifluoroacetic acid salt], on 5-HT2B receptor [2], the “5-HT2B receptor binding (% displacement) 1 nM” value is 26* %, the inhibition at 0.01 µM worked out at 64% and the “5-HT2B receptor binding (% displacement) 100 nM” value is given as 94* %.
In the case of `CC1CN(C(=N)NCc2ccc(F)cc2)c2ccc3c(Br)cccc3c21` (centres unmarked) [Example 26, 6-Bromo-N-(4-fluorobenzyl)-1-methyl-1,2-dihydro-3H-benzo[e]indole-3-carboximidamide 2,2,2-trifluoroacetic acid salt], on 5-HT2B receptor [1], the inhibition at 0.001 µM is 43%, the inhibition at 0.01 µM amounted to 90% and the inhibition at 0.1 µM was 98%.
For the compound `CC1CN(C(=N)N)c2ccc3c(S(C)(=O)=O)cccc3c21` (centres unmarked) [Example 39, 1-Methyl-6-(methylsulfonyl)-1,2-dihydro-3H-benzo[e]indole-3-carboximidamide 2,2,2-trifluoroacetic acid salt], at 5-HT2B receptor [2], the “5-HT2B receptor binding (% displacement) 1 nM” value is 6* %, the inhibition at 0.01 µM turned out to be 8% and the “5-HT2B receptor binding (% displacement) 100 nM” value is recorded as 28* %.
Regarding `C#CCNC(=N)N1CC(C)c2c1ccc1c(Br)cccc21` (centres unmarked) [Example 18, 6-Bromo-1-methyl-N-(prop-2-yn-1-yl)-1,2-dihydro-3H-benzo[e]indole-3-carboximidamide 2,2,2-trifluoroacetic acid salt], the inhibition at 0.01 µM at 5-HT2B receptor [1] came out at 104%.
For the compound `COc1cc2c(c3ccccc13)C(C)CN2C(=N)N` (centres unmarked) [Example 44, 5-Methoxy-1-methyl-1,2-dihydro-3H-benzo[e]indole-3-carboximidamide hydrochloride], at 5-HT2B receptor [1], the inhibition at 0.001 µM is 9%, the inhibition at 0.01 µM turned out to be 13% and the inhibition at 0.1 µM stood at 70%.
For `CNC(=N)N1CC(C)c2c1ccc1ccccc21` (centres unmarked) [Example 6, N,1-Dimethyl-1,2-dihydro-3H-benzo[e]indole-3-carboximidamide hydrochloride], in that order: 18%, 57% and 93%.
In the same order, the values of `CC1CN(C(=N)N)c2ccc3c(C4CC4)cccc3c21` (centres unmarked) [Example 42, 6-Cyclopropyl-1-methyl-1,2-dihydro-3H-benzo[e]indole-3-carboximidamide hydrochloride] are 1%, 56% and 96%.
For `CC1CN(C(=N)N)c2ccc3c(I)cccc3c21` (centres unmarked) [Example 34, 6-Iodo-1-methyl-1,2-dihydro-3H-benzo[e]indole-3-carboximidamide 2,2,2-trifluoroacetic acid salt], at 5-HT2B receptor [2], the “5-HT2B receptor binding (% displacement) 1 nM” value was 30* %, the inhibition at 0.01 µM came out at 88% and the “5-HT2B receptor binding (% displacement) 100 nM” value is recorded as 102* %.
On to `CCCCNC(=N)N1CC(C)c2c1ccc1c(Br)cccc21` (centres unmarked) [Example 15, 6-Bromo-N-butyl-1-methyl-1,2-dihydro-3H-benzo[e]indole-3-carboximidamide 2,2,2-trifluoroacetic acid salt], for which the inhibition at 0.01 µM on 5-HT2B receptor [1] was 103%.
For `COCCNC(=N)N1CC(C)c2c1ccc1c(Br)cccc21` (centres unmarked) [Example 23, 6-Bromo-N-(2-methoxyethyl)-1-methyl-1,2-dihydro-3H-benzo[e]indole-3-carboximidamide 2,2,2-trifluoroacetic acid salt], the inhibition at 0.01 µM at 5-HT2B receptor [1] was 100%.
Turning to `CC1CN(C(=N)N)c2ncc3ccccc3c21` (centres unmarked) [Example 4, 1-Methyl-1,2-dihydro-3H-pyrrolo[2,3-c]isoquinoline-3-carboximidamide hydrochloride], at 5-HT2B receptor [1], the inhibition at 0.001 µM was -1%, the inhibition at 0.01 µM was found to be 16% and the inhibition at 0.1 µM stood at 64%.

The values are drawn from patent US20220267268A1, “NEW TRICYCLIC 5-HT2 ANTAGONISTS” (Anamar AB, priority 2019, published 2022).
